# Paper PMC3183052, “Immunoprotectivity of HLA-A2 CTL Peptides Derived from Respiratory Syncytial Virus Fusion Protein in HLA-A2 Transgenic Mouse” (PLoS ONE, 2011)
# Columns and labels:
# [1] = biological target: T1, HLA-A*0201 (Homo sapiens, UniProt P04439, D140Y/D185E/D98H/E176V/E277Q/G131W/G231S/I119V/I121R/I166T/I218V/L300P/L318F/N151K/N90K/P208A/P217A/Q86G/Q94H/R138H/R169H/T345S); assay: T2 cell-stabilization assay (T2-binding); conditions: for T2-binding Ratio of MFI: T2 cells 5×10^5, peptide 50 µg/mL + β2-microglobulin 5 µg/mL, 28°C 16–18 h, then brefeldin A 10 µg/mL 37°C 3 h, FITC anti-HLA-A2, flow cytometry, MFI relative to negative control HCV C55-74 (set as 1)
# T1 construct: Human T2 cells (purchased from the American Type Culture Collection, ATCC) (ATCC No. CRL-1992) expressing the HLA-A*0201 gene; endogenous in cells; host or cells: human T2 cells (ATCC CRL-1992)
# Protocol: T2 cells (5×10^5) cultured in 96-well U-bottom plates were incubated with the individual 9-mer synthetic peptides (50 µg/mL) and β2-microglobulin (5 µg/mL; Sigma-Aldrich) at 28°C for 16–18 hours. Subsequently, brefeldin A (10 µg/mL) was added and the cells were incubated at 37°C for another 3 hours, then washed and stained with fluorescence isothiocyanate (FITC)-conjugated mouse anti-human HLA-A2 antibody (SeroTec). Peptide-loaded T2 cells were acquired and analyzed on the FACScan flow cytometer using CellQuest software (Becton Dickinson). GLC-9 peptide was used as positive control (PC). The mean fluorescence intensity (MFI) represents the binding affinity of each peptide compared to MFI (set as MFI = 1) obtained from negative control (NC), which is T2 cells loaded with HCV peptide C55-74.
# Twenty-five 9-mer synthetic peptides derived from the RSV F glycoprotein sequence presumed to encompass HLA-A*0201 binding motifs were synthesized (Table 1). Each was tested for its ability to bind HLA-A*0201 molecules by T2 cell-based binding assay (data not shown). The relative mean fluorescence intensity (MFI) obtained from the positive control (PC) peptide derived from Epstein-Barr virus capsid protein (GLC-9, a previously defined HLA-A*0201-restricted CTL epitope) was twofold (MFI = 1.96) compared to the baseline MFI = 1 obtained from the negative control (NC) treated with an unrelated peptide HCV C55-74 (a C57BL/6-specific CD4 epitope). […] The remaining peptides had no detectable binding to the HLA-A*0201 molecules. Apparently, the different MFIs generated by binding of RSV F-derived peptides to HLA-A*0201 reflects on the binding specificity of different peptides to a given HLA molecule.
# [2] = system: splenocytes from HLA-A*0201 transgenic C57BL/6 mice; assay: IL-2 ELISPOT of splenocytes restimulated with peptide; type: cell-based, mouse; conditions: for IL-2 ELISPOT, RSV: splenocytes of HLA-Tg B6 mice primed and boosted i.n. with 10^4 pfu RSV-B1; for IL-2 ELISPOT, RSV / IL-2 ELISPOT, rAd-F0: restimulated with 2 µg peptide, representative of two experiments, five mice per group; for IL-2 ELISPOT, rAd-F0: splenocytes of HLA-Tg B6 mice primed and boosted i.n. with 10^7 pfu rAd-F0; for IL-2 level in restimulated splenocytes (ELISPOT, text grading): splenocytes of rAd-F0- or RSV B1-primed and boosted HLA-Tg B6 mice, high = over 100 spots, moderate = over 50 spots
# Protocol: (§1) To screen the immunodominance of epitopic peptide in the induction of RSV-F specific Th1/Th2 expression, HLA-A*0201 transgenic C57BL/6 mice were anesthetized with isoflurane and immunized with 1×10^7 pfu/50 µL of rAd-F0 or rAd-LacZ or 1×10^4 live RSV B1 via the intranasal (i.n.) route. Twenty days later, the mice were given booster immunization i.n. with the same dose. After 10 days of boost, mice were sacrificed and splenocytes were isolated for the cytokine ELISPOT assay. For peptide-based vaccination, transgenic mice were immunized subcutaneously (s.c.) with 50 µg of the individual synthetic peptides emulsified in 25 µL of incomplete Freund's adjuvant (IFA) (Sigma-Aldrich) and then boosted after 10 days s.c. with the same dose of the respective peptides mixed with IFA. Mice were sacrificed 7 days after the booster and splenocytes were isolated for in vitro peptide-restimulation. For challenge studies, 10^7 pfu of live RSV-B1 was administered i.n. seven days after the booster immunization with peptide vaccines. Mice were sacrificed on day 4 post-challenge and the lung tissues were collected and subjected to further analysis by flow cytometry, ELISA, CTL assay and immunohistochemistry. Mice body weight was monitored daily.
# (§2) […] RBC-free splenocyte suspensions prepared from the individual mice were seeded in individual wells of 96-well filtration plates (Millipore) precoated with capturing monoclonal antibodies for murine IL-2, IL-4 or IFN-γ (0.5 µg/ well) (eBioscience) and blocked with conditioned medium (CM) for 1 hour at room temperature. The splenocytes were added with the individual RSV F 9-mer synthetic peptides (2 µg each) or GLC-9 dissolved in CM (100 µL). The splenocytes added with Con A (10 µg/mL) were used as positive control. Unstimulated splenocytes were used as negative control. The plates were kept in a 37°C incubator equilibrated with 5% CO2 for 48 hours. The individual wells of the ELISPOT plates were washed three times with washing buffer (0.05% tween20 in PBS, PBS-T), and then 0.2 µg of the corresponding biotinylated detection monoclonal antibodies specific for IL-2, IL-4 and IFN-γ were added to detect the respective cytokines. After 2 hours of incubation at room temperature, the plates were washed and 100 µl of streptavidin-alkaline phosphatase (1∶ 250 dilution) was added to the individual wells, and the plates were incubated at room temperature for 45 minutes. Finally, the plates were washed four times with the wash buffer, and 100 µl of AEC (3-amine-9-ethylcarbazole, Sigma-Aldrich) substrate was added to each well and allowed to react for 30 minutes at room temperature in the dark. The plates were then washed with water, air-dried overnight, and the spots per well were scored using the immunospot counting reader (C.T.L. IMMUNOSPOT, CELLULAR TECHNOLOGY LTD). Results were expressed as the number of cytokine-secreting cells per 5×10^5 splenocytes seeded in the initial culture.
# (§3) Figure 1 Induction of IFN-γ and IL-2 in splenocytes from RSV F peptide immunized HLA-A*0201 transgenic mice upon secondary recall. Splenocytes harvested on day 30 from HLA-A-Tg B6 mice primed and boosted at 20 days interval intranasally with 10^7 pfu of rAd-F0 (□) or 10^4 pfu of RSV-B1 (▪)were restimulated with 2 µg of the individual RSV F peptide or 10 µg/ml Con A for 5 days in the presence of murine IL-2 . After stimulation, 5×10^5 splenocytes were seeded to anti-IFN-γ (A) or anti-IL-2 (B) capture antibody coated ELISPOT plates for 2 days for ELISPOT assay as described in Materials and Methods. Cytokine-positive immunospots were developed and the results are expressed as the number of immunospots +/−2 standard deviations for each experimental group. Data is representative of results derived from two independent experiments, each with five mice per group.
# [3] = system: splenocytes from HLA-A*0201 transgenic C57BL/6 mice; assay: IFN-γ ELISPOT of splenocytes restimulated with peptide; type: cell-based, mouse; conditions: for IFN-γ ELISPOT, RSV: splenocytes of HLA-Tg B6 mice primed and boosted i.n. with 10^4 pfu RSV-B1; for IFN-γ ELISPOT, RSV / IFN-γ ELISPOT, rAd-F0: restimulated with 2 µg peptide, representative of two experiments, five mice per group; for IFN-γ ELISPOT, rAd-F0: splenocytes of HLA-Tg B6 mice primed and boosted i.n. with 10^7 pfu rAd-F0; for IFN-γ level in restimulated splenocytes (ELISPOT, text grading): splenocytes of rAd-F0- or RSV B1-primed and boosted HLA-Tg B6 mice, high = over 100 spots, moderate = over 50 spots
# Protocol: as §1, §2, §3
substance,measurement,setting,value
19: HLA-A*0201-restricted 9-mer synthetic peptide from F protein of RSV-B1 strain (KINQSLAFI) [compound 19],T2-binding Ratio of MFI,[1],1.08
same,"IL-2 ELISPOT, RSV",[2],36.5 cytokine-secreting cells per 5×10^5 splenocytes
same,"IL-2 ELISPOT, rAd-F0",[2],52 cytokine-secreting cells per 5×10^5 splenocytes
same,"IL-2 level in restimulated splenocytes (ELISPOT, text grading)",[2],over 50 spots
same,"IFN-γ ELISPOT, RSV",[3],7.5 cytokine-secreting cells per 5×10^5 splenocytes
same,"IFN-γ ELISPOT, rAd-F0",[3],200 cytokine-secreting cells per 5×10^5 splenocytes
same,"IFN-γ level in restimulated splenocytes (ELISPOT, text grading)",[3],over 100 spots
6: HLA-A*0201-restricted 9-mer synthetic peptide from F protein of RSV-B1 strain (FLLGVGSAI) [compound 6],"binding affinity, MFI higher than the baseline","[1]; T2 cell-based binding assay, baseline = negative control HCV C55-74, called modest binding affinity",~10%
same,T2-binding Ratio of MFI,[1],1.14
same,"IL-2 ELISPOT, RSV",[2],32 cytokine-secreting cells per 5×10^5 splenocytes
same,"IL-2 ELISPOT, rAd-F0",[2],29 cytokine-secreting cells per 5×10^5 splenocytes
same,"IFN-γ ELISPOT, RSV",[3],61.5 cytokine-secreting cells per 5×10^5 splenocytes
same,"IFN-γ ELISPOT, rAd-F0",[3],65 cytokine-secreting cells per 5×10^5 splenocytes
same,"IFN-γ level in restimulated splenocytes (ELISPOT, text grading)",[3],over 50 spots
10: HLA-A*0201-restricted 9-mer synthetic peptide from F protein of RSV-B1 strain (STNKAVVSL) [compound 10],T2-binding Ratio of MFI,[1],0.91
same,"IL-2 ELISPOT, RSV",[2],39.5 cytokine-secreting cells per 5×10^5 splenocytes
same,"IL-2 ELISPOT, rAd-F0",[2],0 cytokine-secreting cells per 5×10^5 splenocytes
same,"IFN-γ ELISPOT, RSV",[3],9.5 cytokine-secreting cells per 5×10^5 splenocytes
same,"IFN-γ ELISPOT, rAd-F0",[3],43 cytokine-secreting cells per 5×10^5 splenocytes
20: HLA-A*0201-restricted 9-mer synthetic peptide from F protein of RSV-B1 strain (IMITTIIIV) [compound 20],T2-binding Ratio of MFI,[1],1.03
same,"IL-2 ELISPOT, RSV",[2],24.5 cytokine-secreting cells per 5×10^5 splenocytes
same,"IL-2 ELISPOT, rAd-F0",[2],32 cytokine-secreting cells per 5×10^5 splenocytes
same,"IFN-γ ELISPOT, RSV",[3],9 cytokine-secreting cells per 5×10^5 splenocytes
same,"IFN-γ ELISPOT, rAd-F0",[3],200 cytokine-secreting cells per 5×10^5 splenocytes
same,"IFN-γ level in restimulated splenocytes (ELISPOT, text grading)",[3],over 100 spots
7: HLA-A*0201-restricted 9-mer synthetic peptide from F protein of RSV-B1 strain (HLEGEVNKI) [compound 7],T2-binding Ratio of MFI,[1],0.83
same,"IL-2 ELISPOT, RSV",[2],33 cytokine-secreting cells per 5×10^5 splenocytes
same,"IL-2 ELISPOT, rAd-F0",[2],68 cytokine-secreting cells per 5×10^5 splenocytes
same,"IL-2 level in restimulated splenocytes (ELISPOT, text grading)",[2],over 50 spots
same,"IFN-γ ELISPOT, RSV",[3],81 cytokine-secreting cells per 5×10^5 splenocytes
same,"IFN-γ ELISPOT, rAd-F0",[3],68.5 cytokine-secreting cells per 5×10^5 splenocytes
same,"IFN-γ level in restimulated splenocytes (ELISPOT, text grading)",[3],over 50 spots
11: HLA-A*0201-restricted 9-mer synthetic peptide from F protein of RSV-B1 strain (SLSNGVSVL) [compound 11],T2-binding Ratio of MFI,[1],1.06
same,"IL-2 ELISPOT, RSV",[2],56.5 cytokine-secreting cells per 5×10^5 splenocytes
same,"IL-2 ELISPOT, rAd-F0",[2],51.5 cytokine-secreting cells per 5×10^5 splenocytes
same,"IL-2 level in restimulated splenocytes (ELISPOT, text grading)",[2],over 50 spots
same,"IFN-γ ELISPOT, RSV",[3],200 cytokine-secreting cells per 5×10^5 splenocytes
same,"IFN-γ ELISPOT, rAd-F0",[3],68.5 cytokine-secreting cells per 5×10^5 splenocytes
same,"IFN-γ level in restimulated splenocytes (ELISPOT, text grading)",[3],over 100 spots
12: HLA-A*0201-restricted 9-mer synthetic peptide from F protein of RSV-B1 strain (VLTSKVLDL) [compound 12],T2-binding Ratio of MFI,[1],0.99
same,"IL-2 ELISPOT, RSV",[2],36 cytokine-secreting cells per 5×10^5 splenocytes
same,"IL-2 ELISPOT, rAd-F0",[2],44 cytokine-secreting cells per 5×10^5 splenocytes
same,"IFN-γ ELISPOT, RSV",[3],116.5 cytokine-secreting cells per 5×10^5 splenocytes
same,"IFN-γ ELISPOT, rAd-F0",[3],95.5 cytokine-secreting cells per 5×10^5 splenocytes
same,"IFN-γ level in restimulated splenocytes (ELISPOT, text grading)",[3],over 100 spots
22: HLA-A*0201-restricted 9-mer synthetic peptide from F protein of RSV-B1 strain (VIIVILLSL) [compound 22],T2-binding Ratio of MFI,[1],0.97
same,"IL-2 ELISPOT, RSV",[2],55 cytokine-secreting cells per 5×10^5 splenocytes
same,"IL-2 ELISPOT, rAd-F0",[2],21.5 cytokine-secreting cells per 5×10^5 splenocytes
same,"IL-2 level in restimulated splenocytes (ELISPOT, text grading)",[2],over 50 spots
same,"IFN-γ ELISPOT, RSV",[3],49 cytokine-secreting cells per 5×10^5 splenocytes
same,"IFN-γ ELISPOT, rAd-F0",[3],88.5 cytokine-secreting cells per 5×10^5 splenocytes
same,"IFN-γ level in restimulated splenocytes (ELISPOT, text grading)",[3],over 50 spots
4: HLA-A*0201-restricted 9-mer synthetic peptide from F protein of RSV-B1 strain (ELDKYKNAV) [compound 4],T2-binding Ratio of MFI,[1],0.94
same,"IL-2 ELISPOT, RSV",[2],51.5 cytokine-secreting cells per 5×10^5 splenocytes
same,"IL-2 ELISPOT, rAd-F0",[2],49.5 cytokine-secreting cells per 5×10^5 splenocytes
same,"IL-2 level in restimulated splenocytes (ELISPOT, text grading)",[2],over 50 spots
same,"IFN-γ ELISPOT, RSV",[3],34.5 cytokine-secreting cells per 5×10^5 splenocytes
same,"IFN-γ ELISPOT, rAd-F0",[3],88.5 cytokine-secreting cells per 5×10^5 splenocytes
same,"IFN-γ level in restimulated splenocytes (ELISPOT, text grading)",[3],over 50 spots
